Assay [1] deals with T1, soluble guanylate cyclase (sGC) (Homo sapiens (Human), UniProt Q02108+Q02153). The assay is described as follows: sGC-HEK-cGMP assay, new protocol with DETA-NONOate, LC/MS detection (Example 2C). It is filed as cell-based. Particulars: read-out: Absolute EC50 (uM) - binned.
For assay [2], the target named is T1, soluble guanylate cyclase (sGC). The assay is described as follows: sGC-HEK-cGMP assay with SNP incubation, LC/MS detection (Example 2A). The assay is classed as cell-based. Particulars: HEK293 cells, 10 μM SNP, LC/MS detection; for Emax: 100% = BAY 41-2272 at 10 μM, read-out: HEK assay Emax - unconstrained (%). The procedure, abridged: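 HEK293 cells with endogenous sGC were pretreated 15 min at 37 °C with 0.5 mM IBMX, then exposed 10 min at 37 °C to compound (added from 0.0001–30 μM solutions) plus SNP (from 10 μM solution). After 0.1 M HCl lysis, cGMP was quantified by LC/MS against a standard curve.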

[3] abbreviates: top of curve not fitted to 100%, read-out: HEK assay EC50 - unconstrained.
The mark [4] stands for this setting: top of curve fitted to 100%, read-out: HEK assay EC50 - constrained.

T1 sequence (Q02153 whole entry): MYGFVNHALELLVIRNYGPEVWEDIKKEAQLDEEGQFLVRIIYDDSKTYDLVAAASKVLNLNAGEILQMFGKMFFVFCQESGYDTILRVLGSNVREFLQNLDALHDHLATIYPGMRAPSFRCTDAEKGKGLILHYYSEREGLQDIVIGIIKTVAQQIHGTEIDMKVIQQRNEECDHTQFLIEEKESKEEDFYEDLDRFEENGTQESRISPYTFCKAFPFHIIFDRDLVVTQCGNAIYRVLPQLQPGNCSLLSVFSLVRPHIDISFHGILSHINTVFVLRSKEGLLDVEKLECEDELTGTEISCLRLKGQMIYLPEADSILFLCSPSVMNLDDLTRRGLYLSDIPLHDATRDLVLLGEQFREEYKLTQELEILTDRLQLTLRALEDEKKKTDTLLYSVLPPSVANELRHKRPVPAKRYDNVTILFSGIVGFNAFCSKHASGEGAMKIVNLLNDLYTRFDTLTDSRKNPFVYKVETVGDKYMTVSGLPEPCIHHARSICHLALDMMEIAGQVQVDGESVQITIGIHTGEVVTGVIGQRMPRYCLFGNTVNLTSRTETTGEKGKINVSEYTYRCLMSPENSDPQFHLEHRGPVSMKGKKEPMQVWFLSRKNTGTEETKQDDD
T1 sequence (Q02108 whole entry): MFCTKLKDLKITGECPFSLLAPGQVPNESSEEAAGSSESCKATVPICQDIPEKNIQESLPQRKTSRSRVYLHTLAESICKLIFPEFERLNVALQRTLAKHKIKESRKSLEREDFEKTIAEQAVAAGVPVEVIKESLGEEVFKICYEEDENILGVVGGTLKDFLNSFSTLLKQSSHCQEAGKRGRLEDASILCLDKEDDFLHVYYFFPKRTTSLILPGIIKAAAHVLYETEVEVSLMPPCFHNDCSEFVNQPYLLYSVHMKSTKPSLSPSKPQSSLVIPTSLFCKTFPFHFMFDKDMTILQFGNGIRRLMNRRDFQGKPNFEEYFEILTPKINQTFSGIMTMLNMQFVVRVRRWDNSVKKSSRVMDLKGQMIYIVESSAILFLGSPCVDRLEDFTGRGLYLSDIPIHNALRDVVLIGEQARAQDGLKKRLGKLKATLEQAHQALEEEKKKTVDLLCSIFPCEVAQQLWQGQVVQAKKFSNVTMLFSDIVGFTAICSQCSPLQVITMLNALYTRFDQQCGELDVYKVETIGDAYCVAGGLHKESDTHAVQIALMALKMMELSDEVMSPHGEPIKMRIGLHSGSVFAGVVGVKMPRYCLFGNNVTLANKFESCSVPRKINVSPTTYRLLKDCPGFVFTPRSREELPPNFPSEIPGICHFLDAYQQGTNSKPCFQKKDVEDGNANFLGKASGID

The term EC50 denotes the concentration needed to bring the measured effect to its halfway point. As usually defined, the Emax is the greatest response seen or fitted, relative to the assay's reference. For `O=C(O)[C@H]1C[C@@H](C(F)(F)F)CCN1c1nc(-c2cc(-c3ccon3)n(Cc3ccccc3F)n2)ncc1F` (racemic) [Compound I-452], the EC50 in assay [1] was under 0.1 µM; in assay [2] (setting [3]) it was 100 to 500 nM. Also, the Emax in assay [2] fell in the range of 80 to 100%.
Turning to `O=C(O)[C@H]1C[C@H](C(F)(F)F)CCN1c1nc(-c2cc(-c3ccon3)n(Cc3ccccc3F)n2)ncc1F` (racemic) [Compound I-453], the EC50 lay within 0.101 to 1 µM in assay [1] and 1000 to 5000 nM in assay [2] (setting [3]). For the same compound, the Emax in assay [2] lay within 0 to 10%.
For the compound `CC1CCCN1c1nc(-c2cc(-c3ccon3)n(Cc3ccccc3F)n2)ncc1F` (stereo not shown) [Compound I-11], the EC50 in assay [1] was in the range of 0.101 to 1 µM; in assay [2] (setting [4]), 500 to 1000 nM.
Take `O=[N+]([O-])c1cnc(-c2cc(-c3ccon3)n(Cc3ccccc3F)n2)nc1N1CCOCC1` [Compound I-14]: the EC50 was over 1 µM in assay [1] and over 10000 nM in assay [2] (setting [4]).
On to `COC1CCCN(c2nc(-c3cc(-c4ccon4)n(Cc4ccccc4F)n3)ncc2F)C1` (stereo not shown) [Compound I-19], for which the EC50 in assay [1] was under 0.1 µM; in assay [2] (setting [4]) it was 1000 to 5000 nM.
`Fc1ccccc1Cn1nc(-c2nccc(N3CCOCC3)n2)cc1-c1ccon1` [Compound I-24]: the EC50 in assay [1] is under 0.1 µM; in assay [2] (setting [3]) it was 100 to 500 nM. The Emax in assay [2] lay in the range of 40 to 60%.
For `CC(C)(C)OC(=O)NC1CCN(c2nc(-c3cc(-c4ccon4)n(Cc4ccccc4F)n3)ncc2F)C1` (stereo not shown) [Compound I-35], in that order: 0.101 to 1 µM, 500 to 1000 nM and 40 to 60%.
For `Fc1ccccc1Cn1nc(-c2ncc(F)c(NC3CCCNC3)n2)cc1-c1ccon1` (stereo not shown) [Compound I-39], the concentration giving a half-maximal response (EC50) lay within 0.101 to 1 µM in assay [1] and 5000 to 10000 nM in assay [2] (setting [3]). The maximum response (Emax) in assay [2] lay in the range of 60 to 80%.
For `O=C(O)C1CN(c2nc(-c3cc(-c4ccon4)n(Cc4ccccc4F)n3)ncc2F)C1` [Compound I-53], the EC50 in assay [1] fell in the range of 0.101 to 1 µM; in assay [2] (setting [4]), 1000 to 5000 nM.
The matching figures for `CC1C(=O)NCCN1c1nc(-c2cc(-c3ccon3)n(Cc3ccccc3F)n2)ncc1F` (stereo not shown) [Compound I-54]: under 0.1 µM and 100 to 500 nM.
For `O=C(O)C1CCN1c1nc(-c2cc(-c3ccon3)n(Cc3ccccc3F)n2)ncc1F` (stereo not shown) [Compound I-55], in that order: 0.101 to 1 µM and 1000 to 5000 nM.
The matching figures for `O=C1CN(c2nc(-c3cc(-c4ccon4)n(Cc4ccccc4F)n3)ncc2F)CCN1` [Compound I-59]: 0.101 to 1 µM and over 10000 nM.
For the compound `CCOC(=O)C1(C)CCN(c2nc(-c3cc(-c4ccon4)n(Cc4ccccc4F)n3)ncc2F)C1=O` (stereo not shown) [Compound I-591], the EC50 in assay [1] was 0.101 to 1 µM.
Still for that read-out and setting: the same measure for `O=C(CS(=O)(=O)c1ccccc1)Nc1ccnc(-c2cc(-c3ccon3)n(Cc3ccccc3F)n2)n1` [Compound I-592]: over 1 µM.
As for `O=C(CS(=O)(=O)c1ccc(Cl)cc1)Nc1ccnc(-c2cc(-c3ccon3)n(Cc3ccccc3F)n2)n1` [Compound I-593], in assay [1], the EC50 was over 1 µM.
As to `CC1(C(=O)Nc2ccnc(-c3cc(-c4ccon4)n(Cc4ccccc4F)n3)n2)Cc2ccccc2S1(=O)=O` (stereo not shown) [Compound I-594], the EC50 in assay [1] was over 1 µM.
Still for that read-out and setting: the same measure for `O=S(=O)(CCC(F)(F)F)Nc1cnc(-c2cc(-c3ccon3)n(Cc3ccccc3F)n2)nc1` [Compound I-595]: 0.101 to 1 µM.
On the same count and under the same terms, the same measure for `O=C(CN1C(=O)c2ccccc2C1=O)Nc1ccnc(-c2cc(-c3ccon3)n(Cc3ccccc3F)n2)n1` [Compound I-596]: over 1 µM.
In the case of `O=C(Cc1ccccc1)NCC(=O)Nc1ccnc(-c2cc(-c3ccon3)n(Cc3ccccc3F)n2)n1` [Compound I-597], the EC50 in assay [1] was over 1 µM.
Same read-out and setting: in the case of `O=C(CNC(=O)OCc1ccccc1)Nc1ccnc(-c2cc(-c3ccon3)n(Cc3ccccc3F)n2)n1` [Compound I-598] it was over 1 µM.
Consider `O=C(CN1Cc2ccccc2C1=O)Nc1ccnc(-c2cc(-c3ccon3)n(Cc3ccccc3F)n2)n1` [Compound I-599], for which, in assay [1], the EC50 was over 1 µM.
Same read-out and setting: in the case of `O=C(CN1CCOC1=O)Nc1ccnc(-c2cc(-c3ccon3)n(Cc3ccccc3F)n2)n1` [Compound I-600] it was 0.101 to 1 µM; in that of `O=C(Cn1cnc2ccccc2c1=O)Nc1ccnc(-c2cc(-c3ccon3)n(Cc3ccccc3F)n2)n1` [Compound I-601], over 1 µM.
Take `O=C(CN1C(=O)c2ccccc2C1=O)NCC(=O)Nc1ccnc(-c2cc(-c3ccon3)n(Cc3ccccc3F)n2)n1` [Compound I-602]: in assay [1], the EC50 is over 1 µM.
For `COC(=O)NCC(=O)Nc1ccnc(-c2cc(-c3ccon3)n(Cc3ccccc3F)n2)n1` [Compound I-603], the EC50 in assay [1] fell in the range of 0.101 to 1 µM.
For the compound `CC1(C(=O)O)CCN(c2nc(-c3cc(-c4ccon4)n(Cc4ccccc4F)n3)ncc2F)C1=O` (stereo not shown) [Compound I-604], the EC50 in assay [1] was 0.101 to 1 µM.
Still for that read-out and setting: in the case of `CC1(C(=O)NC2CC2)CCN(c2nc(-c3cc(-c4ccon4)n(Cc4ccccc4F)n3)ncc2F)C1=O` (stereo not shown) [Compound I-605] it was 0.101 to 1 µM.
For the compound `CC1(C(N)=O)CCN(c2nc(-c3cc(-c4ccon4)n(Cc4ccccc4F)n3)ncc2F)C1=O` (stereo not shown) [Compound I-606], the EC50 in assay [1] lay within 0.101 to 1 µM.
As for `O=S(=O)(Cc1ccc(F)cc1)Nc1nc(-c2cc(-c3ccon3)n(Cc3ccccc3F)n2)ncc1F` [Compound I-607], in assay [1], the EC50 lay within 0.101 to 1 µM.
Take `Fc1ccccc1Cn1nc(-c2ncc(F)c(NCc3nnc(C(F)(F)F)o3)n2)cc1-c1ccon1` [Compound I-608]: the 50% effective concentration (EC50) in assay [1] was under 0.1 µM.
Same read-out and setting: in the case of `O=S(=O)(CC(F)(F)F)Nc1nc(-c2cc(-c3ccon3)n(Cc3ccccc3F)n2)ncc1F` [Compound I-609] it was over 1 µM; in that of `O=S(=O)(Nc1nc(-c2cc(-c3ccon3)n(Cc3ccccc3F)n2)ncc1F)C1CC1` [Compound I-610], 0.101 to 1 µM.
Regarding `CCCS(=O)(=O)Nc1nc(-c2cc(-c3ccon3)n(Cc3ccccc3F)n2)ncc1F` [Compound I-611], in assay [1], the concentration for a half-maximal effect (EC50) fell in the range of 0.101 to 1 µM.
On to `O=C1CCS(=O)(=O)N1c1nc(-c2cc(-c3ccon3)n(Cc3ccccc3F)n2)ncc1F` [Compound I-612], for which the EC50 in assay [1] is under 0.1 µM.
Regarding `O=S(=O)(Nc1nc(-c2cc(-c3ccon3)n(Cc3ccccc3F)n2)ncc1F)c1ccccc1` [Compound I-613], the EC50 in assay [1] fell in the range of 0.101 to 1 µM.
The same measure, in the same setting: in the case of `COc1ccc(S(=O)(=O)Nc2nc(-c3cc(-c4ccon4)n(Cc4ccccc4F)n3)ncc2F)cc1OC` [Compound I-614] it was 0.101 to 1 µM.
In the case of `O=C1C(O)CCN1c1nc(-c2cc(-c3ccon3)n(Cc3ccccc3F)n2)ncc1F` (stereo not shown) [Compound I-615], the EC50 in assay [1] is over 1 µM.
Same read-out and setting: in the case of `CS(=O)(=O)CC(=O)Nc1nc(-c2cc(-c3ccon3)n(Cc3ccccc3F)n2)ncc1F` [Compound I-616] it was 0.101 to 1 µM; in that of `CCOC(=O)C1(C)C(=O)Nc2cnc(-c3cc(-c4ccon4)n(Cc4ccccc4F)n3)nc21` (stereo not shown) [Compound I-617], over 1 µM; in that of `CCOC(=O)C1(C)C(=O)Nc2nc(-c3cc(-c4ccon4)n(CCC(F)(F)F)n3)nc(N)c21` (stereo not shown) [Compound I-618], over 1 µM.
Still for that read-out and setting: the same measure for `CC1(C(N)=O)C(=O)Nc2nc(-c3cc(-c4ccon4)n(CCC(F)(F)F)n3)nc(N)c21` (stereo not shown) [Compound I-619]: over 1 µM; for `COC(=O)Nc1c(N)nc(-c2cc(-c3ccon3)n(Cc3ccccc3F)n2)nc1N` [Compound I-620]: over 1 µM.
Regarding `COC(=O)N(C)c1c(N)nc(-c2cc(-c3ccon3)n(Cc3ccccc3F)n2)nc1N` [Compound I-621], the EC50 in assay [1] is over 1 µM.
`C[C@@H](Nc1nc(-c2cc(-c3ccon3)n(Cc3ccccc3F)n2)ncc1F)c1nnc(C(F)(F)F)o1` [Compound I-622]: the EC50 in assay [1] was under 0.1 µM.
On the same count and under the same terms, in the case of `CC(=O)NNC(=O)C1(C)C(=O)Nc2nc(-c3cc(-c4ccon4)n(Cc4ccccc4F)n3)nc(N)c21` (stereo not shown) [Compound I-623] it was over 1 µM; in that of `O=S(=O)(Nc1nc(-c2cc(-c3ccon3)n(Cc3ccccc3F)n2)ncc1F)c1ccc(F)cc1` [Compound I-624], 0.101 to 1 µM.
Still for that read-out and setting: the same measure for `O=S(=O)(Nc1nc(-c2cc(-c3ccon3)n(Cc3ccccc3F)n2)ncc1F)c1cccnc1` [Compound I-625]: over 1 µM; for `CS(=O)(=O)CCC(Nc1nc(-c2cc(-c3ccon3)n(CCC(F)(F)F)n2)ncc1F)C(F)(F)F` (stereo not shown) [Compound I-626]: over 1 µM; for `NC(=O)C(O)(CNc1ccnc(-c2cc(-c3ccon3)n(Cc3ccccc3F)n2)n1)C(F)(F)F` (stereo not shown) [Compound I-627]: 0.101 to 1 µM.
For `O=S1(=O)Cc2nc(-c3cc(-c4ccon4)n(Cc4ccccc4F)n3)nc(O)c2C1` [Compound I-628], the EC50 in assay [1] is over 1 µM.
As for `CN(c1nc(-c2cc(-c3ccon3)n(Cc3ccccc3F)n2)ncc1F)S(C)(=O)=O` [Compound I-629], the half-maximal effective concentration (EC50) in assay [1] is over 1 µM.
The same measure, in the same setting: the same measure for `COC(=O)N(C)c1cnc(-c2cc(-c3ccon3)n(Cc3ccccc3F)n2)nc1` [Compound I-630]: over 1 µM.
With `Oc1n[nH]c2c1CN(c1nc(-c3cc(-c4ccon4)n(Cc4ccccc4F)n3)ncc1F)CC2` [Compound I-631], in assay [1], the EC50 is under 0.1 µM.
With `Nc1nc(-c2cc(-c3ccon3)n(Cc3ccccc3F)n2)nc2c1CS(=O)(=O)C2` [Compound I-632], in assay [1], the concentration giving a half-maximal response (EC50) was over 1 µM.
On the same count and under the same terms, in the case of `OCC1Cn2c(nnc2C(F)(F)F)CN1c1nc(-c2cc(-c3ccon3)n(Cc3ccccc3F)n2)ncc1F` (stereo not shown) [Compound I-633] it was under 0.1 µM; in that of `CC(O)(CNc1nc(-c2cc(-c3ccon3)n(Cc3ccccc3F)n2)ncc1F)C(F)(F)F` (stereo not shown) [Compound I-634], under 0.1 µM.

The values above are taken from patent publication US10183021B2, “sGC stimulators” (Ironwood Pharmaceuticals, Inc., priority 2013, dated 2019).
